Tests used:
[1] = test system: CSPα^L115R and CSPα^L116Δ; experiment: CSPα oligomerization and palmitoylation in CSPα−/− primary cortical neurons expressing ANCL mutants (SDS-PAGE, quantitative immunoblotting); type: cell-based, mice; details: 200 μM, 72 h, FIG. 3D; for oligomerization of CSPα^L115R and CSPα^L116Δ: vs vehicle (0.1% DMSO); for palmitoylation of CSPα^L115R and CSPα^L116Δ: vs vehicle
CSPα with SNAP-25 = experiment: Interaction of CSPα with SNAP-25 in ANCL iNs (SNAP-25 IP, co-IP of CSPα); type: cell-based, human; details: 72 h, compared to control, FIG. 7C
Description: ANCL patient-derived fibroblasts were treated with 200 μM of L1 or Dfx, or vehicle (0.1% DMSO=Control) for 72 h, before measuring the UV-Vis absorbance spectra of immunoprecipitated CSPα eluted by trypsinization (solid lines). Spectra were re-read after 10 min of 0.1 N HCl treatment (dashed lines). The experiments shown in FIGS. 7B-7I, were conducted using ANCL fibroblasts converted to iNs using BAM+ND1 technique. […] Quantitative immunoblotting was used to measure levels of oligomerized and fully palmitoylated CSPα as well as total SNAP-25. Oligo=oligomers; Palm=palmitoylated. […] The interaction of CSPα with SNAP-25 in ANCL iNs was measured by immunoprecipitating SNAP-25 followed by quantitative immunoblotting of co-immunoprecipitated CSPα (normalized to SNAP-25 IP). Note that mainly CSPα monomers and not oligomers were detected bound to SNAP-25. Control=control sham IP without IgG. […] Turnover of SNAP-25 was determined by cycloheximide chase, while maintaining the iron-chelators or vehicle in the medium. […] In the experiments shown in FIGS. 7E-7G, ANCL iNs treated with L1, Dfx, or vehicle for 56 d and analyzed. […] The levels of lipofuscin were determined by ELISA. In the experiments shown in FIGS. 7H-7I 56 day old untreated ANCL iNs were treated with L1, Dfx, or vehicle, and analyzed. […]

Compound | oligomerization of CSPα^L115R and CSPα^L116Δ [1] | palmitoylation of CSPα^L115R and CSPα^L116Δ [1] | interaction of CSPα with SNAP-25 (CSPα with SNAP-25)
CC(=O)N(O)CCCCCNC(=O)CCC(=O)N(O)CCCCCNC(=O)CCC(=O)N(O)CCCCCN [Dfx, N′-[5-(Acetyl-hydroxy-amino)pentyl]-N-[5-[3-(5-aminopentyl-hydroxy-carbamoyl)propanoylamino]pentyl]-N-hydroxy-butane diamide] | reduced the oligomerization | improved | improved
Cc1c(O)c(=O)ccn1C [L1, 3-hydroxy-1,2-dimethyl-4(1H)-pyridone] | reduced the oligomerization | improved | improved
